The values below come from US7144858B2, “Antibacterial compounds and methods for treating Gram positive bacterial infections” (The Trustees of the University of Pennsylvania, priority 2002, dated 2006).

A short description of test [1]: Binding to Park's nucleotide, Kd by 1H NMR titration. As to conditions: for Kd: 20% DMSO, NMR titration. Further details: species or system Bacillus subtilis. As to the method: Fibril formation is observed in vitro and serves as a convenient predictor of PG complexation in vitro. […] Therefore, DMSO allows for the determination of binding affinity (Kd) values and characterization of the binding interface by Nuclear Magnetic Resonance spectroscopy (NMR).
(§1) Mass spectra were recorded on commercially available spectrometers and HPLC was performed on a commercially available columns. Both the NMR spectroscopy and transmission electron micrographs were performed in a manner known to one of ordinary skill in the art. Fmoc-amino acids and deuterated solvents were purchased from a commercial supplier. Measurement of dissociation constants was performed by NMR.
(§2) UDP-MurNAc-L-Ala-γ-D-Glu-L-Dap-D-Ala-D-Ala pentapeptide (Park's nucleotide) and UDP-MurNAc-L-Ala-γ-D-Glu-L-Dap tripeptide were isolated from Bacillus subtilis by methods known to those of ordinary skill in the art.
(§3) The resultant antibacterial compound was then titrated against a solution of the cytoplasmic PG biosynthetic precursor of lipid II, Park's nucleotide. Isothermal titration calorimetry experiments were used to measure the interaction between the antibacterial compound and Park's nucleotide. The experiments were performed at 25° C. using a titration microcalorimeter equipped with a 250 μL injection syringe and a 400 rpm stirring rate. Both the, antibacterial compound and Park's nucleotide were dissolved in water and vacuum degassed before use. Park's nucleotide (20×10 μL injection of a 5.4 mM solution) was injected into an ITC cell containing ca. 1.3 mL of the antibacterial compound (1 mM). Control experiments were performed under identical conditions by injection of the compound into water alone, Park's nucleotide into water, and the reverse experiment of titrating water into solution of the antibacterial compound or Park's nucleotide. […] The complex pattern of heat released during the titration is indicative of ligand-induced aggregation. Insoluble fibrils were produced from soluble fibril preparations by increasing the ionic strength to greater than or equal to 100 mM.

A short description of test [2]: Binding to UDP-MurNAc tripeptide lipid II precursor, NMR titration. The following applies: for Complexation/binding with UDP-MurNAc-L-Ala-γ-D-Glu-L-Dap tripeptide: NMR analysis / titration. Further details: species or system Bacillus subtilis. As to the method: as §1, §2, §3
The resultant antibacterial compound still maintains the side-chain amine cationic charge. […] These values indicate that there was a strong affinity of the antibacterial compound to the two lipid II precursors.

A short description of test [3]: Isothermal titration calorimetry with Park's nucleotide. The format is binding, Bacillus subtilis. The following applies: 25° C., water, Park's nucleotide 5.4 mM injected into 1 mM compound. The protocol:
as §3
For orientation: ITC needs no label: the signal is the heat of the interaction.

Test [4] relates to Gram positive bacteria. As to the kind of experiment: Antibiotic activity. The format is cell-based.

On to “cyclic (lactone) antibacterial compound containing octapeptide -Hpg-Orn-Thr-Hpg-Hpg-Thr-Phe-Orn-, diguanidylated at the ornithine residues [Example 1]”, for which the Kd (commonly the constant that tells how readily two partners part at equilibrium) in test [1] came to 170 µM. Moreover, the “Complexation with Park's nucleotide by NMR” value in test [1] (NMR analysis) was “clear evidence of complexation and formation of a large, soluble aggregate”. In test [2], the “Complexation/binding with UDP-MurNAc-L-Ala-γ-D-Glu-L-Dap tripeptide” value is “clear evidence of complexation and formation of a large, soluble aggregate”. Further, the “Ligand-induced aggregation during ITC titration” value in test [3] was “ligand-induced aggregation occurred”.
“cyclic (lactone) compound containing octapeptide -Hpg-Orn-Thr-Hpg-Hpg-Thr-Phe-Orn-, diacetylated at the ornithine residues; lacks the side-chain cationic charge [Comparative Example A, reference compound]”: binding in test [1] was characterised by a dissociation constant (Kd) of 1340 ± 320 µM. For the same substance, the “Decrease in binding affinity with Park's nucleotide” value in test [1] (titration experiments) is given as approximately 10 fold. In addition, in test [2], the “Complexation/binding with UDP-MurNAc-L-Ala-γ-D-Glu-L-Dap tripeptide” value was “failed to show detectable binding”. Moreover, the “Antibiotic activity” value in test [4] is “markedly reduced”.
Take “cyclic (lactone) compound containing octapeptide -Hpg-Orn-Thr-Hpg-Hpg-Thr-Phe-Orn-, ornithine residues modified into secondary amines with isovaleraldehyde [Example 2]”: the Kd was 130 ± 20 µM in test [1] and 1280 ± 140 µM in test [2] (titration as in example 1, read-out: Kd value with UDP-MurNAc-L-Ala-γ-D-Glu-L-Dap tripeptide).
